Measurements taken from EP2272817A1, “PAI-1 INHIBITOR” (Institute of Medicinal Molecular Design, Inc., priority 2008, dated 2009).

target: recombinant human PAI-1 (Homo sapiens, UniProt P05121); assay: biochemical; conditions: read-out: Inhibition Rate of PAI Activity (%)
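Note: PAI-1 preincubated with compound, then two-chain tPA added, residual tPA activity read with fluorogenic Pyr-Gly-Arg-MCA substrate after 30 min at room temperature.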

recombinant human PAI-1, sequence (P05121 24-402): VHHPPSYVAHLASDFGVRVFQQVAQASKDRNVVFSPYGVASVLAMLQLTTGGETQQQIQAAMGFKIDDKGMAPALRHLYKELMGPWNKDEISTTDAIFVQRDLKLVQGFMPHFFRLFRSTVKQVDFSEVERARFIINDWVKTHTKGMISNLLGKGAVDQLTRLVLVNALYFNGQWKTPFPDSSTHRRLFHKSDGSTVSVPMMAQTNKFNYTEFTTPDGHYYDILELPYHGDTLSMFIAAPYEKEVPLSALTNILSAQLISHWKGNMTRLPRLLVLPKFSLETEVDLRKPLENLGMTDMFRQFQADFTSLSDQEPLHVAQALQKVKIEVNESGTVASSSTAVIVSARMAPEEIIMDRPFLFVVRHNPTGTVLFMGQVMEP

inhibition at 5 µM | inhibition at 10 µM | inhibition at 25 µM | SMILES
29% | 62% | 99% | O=C(O)CCc1cc(-c2ccc(OC(F)(F)F)cc2)ccc1OCc1ccc(OC(F)(F)F)cc1 [Compound 62]
21% | 56% | 88% | O=C(O)CCc1cc(-c2ccc(OC(F)(F)F)cc2)ccc1OCc1ccc(-c2ccccc2)cc1 [Compound 29]

same assay, conditions: read-out: Inhibition Rate of PAI-1 Activity (%)

inhibition at 5 µM | inhibition at 10 µM | inhibition at 25 µM | inhibition at 0.5 µM | inhibition at 1 µM | SMILES
56% | 85% | 89% |  |  | COc1ccc(-c2ccc(OC(F)(F)F)cc2)cc1N(Cc1ccc(C(C)(C)C)cc1)C(=O)C(=O)O [Compound 182]
27% | 62% |  |  |  | Cc1cc(C)cc(CN(C(=O)C(=O)O)c2ccc(-c3ccc(OC(F)(F)F)cc3)cc2)c1 [Compound 123]
61% |  |  | 4% | 14% | CC(C)(C)c1ccc(COc2cc(-c3ccc(OC(F)(F)F)cc3)cc(O)c2OCC(=O)O)cc1 [Compound 546]
33% | 58% | 86% |  |  | CC(C)(C)c1ccc(CN(C(=O)C(=O)O)c2ccc(N3CCCCC3=O)c(-c3ccc(OC(F)(F)F)cc3)c2)cc1 [Compound 219]
51% | 87% | 94% |  |  | CC(C)(C)c1ccc(Oc2cccc(-c3ccc(OC(F)(F)F)cc3)c2/C=C/C(=O)O)cc1 [Compound 93]
59% | 83% | 96% |  |  | CCCOc1ccc(-c2ccc(OC(F)(F)F)cc2)cc1N(CCCc1ccccc1)C(=O)C(=O)O [Compound 234]
27% | 51% | 73% |  |  | CC(C)(C)c1ccc(COc2cc(Oc3ccc(OC(F)(F)F)cc3)ccc2/C=C/C(=O)O)cc1 [Compound 77]
77% | 94% | 93% |  |  | CCCCCOc1ccc(-c2ccc(OC(F)(F)F)cc2)cc1N(Cc1ccccc1)C(=O)C(=O)O [Compound 195]
 | 1% | 22% |  |  | Cc1ccc(CN(C(=O)C(=O)O)c2ccc(-c3ccc(OC(F)(F)F)cc3)cc2)cc1 [Compound 143]
60% | 89% | 96% |  |  | CC(C)Oc1ccc(N(CCCCc2ccccc2)C(=O)C(=O)O)cc1-c1ccc(OC(F)(F)F)cc1 [Compound 248]
62% | 91% | 95% |  |  | CCCOc1ccc(N(CCCCc2ccccc2)C(=O)C(=O)O)cc1-c1ccc(OC(F)(F)F)cc1 [Compound 240]
 | 6% | 67% |  |  | CC(C)(C)c1ccc(CN(C(=O)C(=O)O)c2ccc(-c3ccc(Cl)cc3)cc2)cc1 [Compound 135]
68% | 89% |  |  |  | CC(C)(C)Oc1ccc(N(CCCCc2ccccc2)C(=O)C(=O)O)cc1-c1ccc(OC(F)(F)F)cc1 [Compound 249]
79% | 90% |  |  |  | CCC(CC)Oc1ccc(N(Cc2ccc(C(C)(C)C)cc2)C(=O)C(=O)O)c(-c2ccc(OC(F)(F)F)cc2)c1 [Compound 207]
7% | 35% | 74% |  |  | CC(C)(C)c1ccc(CN(C(=O)C(=O)O)c2ccc(-c3ccc(C(F)(F)F)cc3)cc2)cc1 [Compound 145]
79% | 96% |  |  |  | Cc1cc(N(C)C)c(-c2ccc(OC(F)(F)F)cc2)cc1N(CCCCc1ccccc1)C(=O)C(=O)O [Compound 246]
41% | 77% | 95% |  |  | CC(C)(C)c1ccc(CN(C(=O)C(=O)O)c2ccccc2OCc2ccc(OC(F)(F)F)cc2)cc1 [Compound 620]
48% | 85% | 97% |  |  | CC(C)(C)c1ccc(COc2ccc(-c3ccc(OC(F)(F)F)cc3)cc2COCC(=O)O)cc1 [Compound 107]

inhibition at 5 µM | inhibition at 10 µM | inhibition at 25 µM | inhibition at 0.5 µM | inhibition at 1 µM | SMILES
22% | 41% | 87% |  |  | CN(C(=O)C(=O)O)c1ccc(OCc2ccc(OC(F)(F)F)cc2)c(OCc2ccc(OC(F)(F)F)cc2)c1 [Compound 623]
18% | 35% | 64% |  |  | CC(C)(C)c1ccc(CN(C(=O)C(=O)O)c2ccc(-c3ccc(OC(F)(F)F)cc3)c(CCC(=O)O)c2)cc1 [Compound 196]
83% | 78% |  |  |  | O=C(O)C(=O)N(CCCCc1ccccc1)c1ccc(N2CCCCC2=O)c(-c2ccc(OC(F)(F)F)cc2)c1 [Compound 250]
2% | 8% | 23% |  |  | CC(C)(C)CN(C(=O)C(=O)O)c1ccc(-c2ccc(OC(F)(F)F)cc2)cc1 [Compound 255]
22% | 49% |  |  |  | O=C(O)C(=O)N(Cc1ccc(Cl)cc1)c1ccc(-c2ccc(OC(F)(F)F)cc2)cc1 [Compound 124]
26% | 59% | 97% |  |  | CC(C)(C)c1ccc(COc2cc(/C=C/C(=O)O)cc(Oc3ccc(OC(F)(F)F)cc3)c2)cc1 [Compound 409]
49% | 83% | 96% |  |  | CC(C)(C)c1ccc(CN(C(=O)C(=O)O)c2ccc(OCc3ccc(OC(F)(F)F)cc3)cc2)cc1 [Compound 616]
 | 14% | 75% |  |  | CSc1ccc(-c2ccc(N(Cc3ccc(C(C)(C)C)cc3)C(=O)C(=O)O)cc2)cc1 [Compound 134]
38% | 69% | > 99% |  |  | CC(C)(C)c1ccc(CN(C(=O)CCC(=O)O)c2ccc(-c3ccc(OC(F)(F)F)cc3)cc2)cc1 [Compound 609]
51% | 86% | 89% |  |  | CC(c1ccc(C(C)(C)C)cc1)N(C(=O)C(=O)O)c1ccc(-c2ccc(OC(F)(F)F)cc2)cc1 (centres unmarked) [Compound 220]
16% | 47% | 79% |  |  | Cc1ccc(-c2ccc(OC(F)(F)F)cc2)cc1N(Cc1ccc(C(C)(C)C)cc1)C(=O)C(=O)O [Compound 136]
26% | 61% | > 99% |  |  | CC(C)(C)c1ccc(N(C(=O)C(=O)O)c2cccc(-c3ccc(OC(F)(F)F)cc3)c2)cc1 [Compound 158]
 | 5% | 61% |  |  | Cc1ccc(-c2ccccc2)cc1N(Cc1ccc(C(C)(C)C)cc1)C(=O)C(=O)O [Compound 137]
62% | 92% | 88% |  |  | CC(C)(C)c1ccc(CN(C(=O)C(=O)O)c2ccc(Cl)c(OCc3ccc(OC(F)(F)F)cc3)c2)cc1 [Compound 629]
9% | 16% | 36% |  |  | O=C(O)C(=O)N(c1ccc(-c2ccc(OC(F)(F)F)cc2)cc1)C1CCCCC1 [Compound 253]
34% | 59% | 90% |  |  | O=C(O)COc1cc(-c2ccc(OC(F)(F)F)cc2)ccc1OCCCCc1ccccc1 [Compound 115]
47% | 77% | 96% |  |  | O=C(O)CCc1cc(-c2ccc(OC(F)(F)F)cc2)ccc1OCCCCCc1ccccc1 [Compound 104]
